Drawing on patent publication US8003660B2, “Modulators of muscarinic receptors” (Vertex Pharmaceuticals Incorporated, priority 2006, dated 2011), this text covers EC50 and Emax for 17 molecules.

Holding throughout (type): cell-based
For assay [1], the target named is T1, M4 muscarinic receptor (Homo sapiens, UniProt P08173).
T1 construct: expressed in transfected cells; host or cells: CHO (M4-CHO)
T1 sequence (P08173 1-479): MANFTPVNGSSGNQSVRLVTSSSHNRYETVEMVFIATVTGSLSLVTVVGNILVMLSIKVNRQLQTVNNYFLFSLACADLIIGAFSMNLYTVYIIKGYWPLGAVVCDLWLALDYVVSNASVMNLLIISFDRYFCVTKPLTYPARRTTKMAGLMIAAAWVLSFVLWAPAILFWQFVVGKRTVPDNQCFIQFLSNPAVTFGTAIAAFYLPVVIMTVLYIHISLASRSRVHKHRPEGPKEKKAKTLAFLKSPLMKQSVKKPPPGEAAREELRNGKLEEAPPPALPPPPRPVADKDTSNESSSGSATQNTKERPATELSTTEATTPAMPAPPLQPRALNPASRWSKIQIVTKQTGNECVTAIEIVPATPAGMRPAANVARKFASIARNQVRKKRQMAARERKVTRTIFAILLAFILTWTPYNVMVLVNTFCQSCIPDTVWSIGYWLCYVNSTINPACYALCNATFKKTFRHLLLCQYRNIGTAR
Description: Functional mobilization of intracellular calcium (FLIPR) in CHO cells expressing M4. The following applies: for pEC50: CHO cells expressing M4, FLIPR calcium; for Emax: CHO, 100% = maximum response obtained with the Carbachol control, read-out: M4 Efficacy. Summed up:
(§1)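 Calcium flux is read on FLIPR over 60 sec at 488/540 nm in muscarinic-receptor CHO lines. Antagonist mode adds carbachol at EC80 after 15 min compound preincubation or with simultaneous co-application. Agonist mode adds compound alone. Cells carry Fluo-3 or Calcium 3 dye in probenecid-containing pH 7.4 buffer, 0.5% DMSO final.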
Background: A change in cytosolic calcium serves as a functional read-out for many receptors and channels.

Assay [2] deals with T2, M1 muscarinic receptor (Homo sapiens, UniProt P11229).
T2 construct: expressed in transfected cells; host or cells: CHO (M1-CHO)
T2 sequence (P11229 1-460): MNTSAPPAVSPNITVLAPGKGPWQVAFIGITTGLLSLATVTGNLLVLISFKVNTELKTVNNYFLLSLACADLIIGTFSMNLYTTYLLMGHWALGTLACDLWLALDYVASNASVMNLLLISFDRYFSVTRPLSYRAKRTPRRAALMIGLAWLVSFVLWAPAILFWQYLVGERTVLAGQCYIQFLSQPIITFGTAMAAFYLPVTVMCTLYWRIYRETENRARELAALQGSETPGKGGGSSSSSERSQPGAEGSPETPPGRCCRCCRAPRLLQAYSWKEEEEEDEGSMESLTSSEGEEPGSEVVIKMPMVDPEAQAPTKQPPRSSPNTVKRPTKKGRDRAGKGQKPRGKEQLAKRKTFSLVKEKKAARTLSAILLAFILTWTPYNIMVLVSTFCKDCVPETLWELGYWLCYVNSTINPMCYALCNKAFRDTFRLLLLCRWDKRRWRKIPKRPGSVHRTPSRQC
Description: Functional mobilization of intracellular calcium (FLIPR) in CHO cells expressing M1. The following applies: for pEC50: CHO cells expressing M1, FLIPR calcium; for Emax: CHO, 100% = maximum response obtained with the Carbachol control, read-out: M1 Efficacy. The gist of the method:
as §1

Assay [3] deals with T3, M3 muscarinic receptor (Homo sapiens, UniProt P20309).
T3 construct: expressed in transfected cells; host or cells: CHO (M3-CHO)
T3 sequence (P20309 whole entry): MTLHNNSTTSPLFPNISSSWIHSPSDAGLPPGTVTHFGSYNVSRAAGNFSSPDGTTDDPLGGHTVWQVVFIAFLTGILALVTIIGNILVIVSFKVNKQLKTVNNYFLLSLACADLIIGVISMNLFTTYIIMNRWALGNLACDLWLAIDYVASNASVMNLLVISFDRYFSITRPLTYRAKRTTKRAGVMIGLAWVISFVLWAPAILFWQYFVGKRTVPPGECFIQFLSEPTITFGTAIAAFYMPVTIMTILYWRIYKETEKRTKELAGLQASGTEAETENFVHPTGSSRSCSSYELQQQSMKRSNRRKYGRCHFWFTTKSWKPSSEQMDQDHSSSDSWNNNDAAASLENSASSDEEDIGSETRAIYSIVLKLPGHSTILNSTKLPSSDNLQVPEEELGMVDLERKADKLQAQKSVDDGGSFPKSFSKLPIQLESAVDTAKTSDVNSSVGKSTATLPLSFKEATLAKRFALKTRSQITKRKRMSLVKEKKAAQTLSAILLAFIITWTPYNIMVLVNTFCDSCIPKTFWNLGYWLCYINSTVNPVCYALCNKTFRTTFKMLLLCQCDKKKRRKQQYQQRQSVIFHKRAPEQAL
Description: Functional mobilization of intracellular calcium (FLIPR) in CHO cells expressing M3. The note with it: for pEC50: CHO cells expressing M3, FLIPR calcium; for Emax: CHO, 100% = maximum response obtained with the Carbachol control, read-out: M3 Efficacy. Summed up:
as §1

In assay [4] the target is T4, M2 muscarinic receptor (Homo sapiens, UniProt P08172).
T4 construct: expressed in transfected cells; host or cells: CHO (M2-CHO)
T4 sequence (P08172 1-466): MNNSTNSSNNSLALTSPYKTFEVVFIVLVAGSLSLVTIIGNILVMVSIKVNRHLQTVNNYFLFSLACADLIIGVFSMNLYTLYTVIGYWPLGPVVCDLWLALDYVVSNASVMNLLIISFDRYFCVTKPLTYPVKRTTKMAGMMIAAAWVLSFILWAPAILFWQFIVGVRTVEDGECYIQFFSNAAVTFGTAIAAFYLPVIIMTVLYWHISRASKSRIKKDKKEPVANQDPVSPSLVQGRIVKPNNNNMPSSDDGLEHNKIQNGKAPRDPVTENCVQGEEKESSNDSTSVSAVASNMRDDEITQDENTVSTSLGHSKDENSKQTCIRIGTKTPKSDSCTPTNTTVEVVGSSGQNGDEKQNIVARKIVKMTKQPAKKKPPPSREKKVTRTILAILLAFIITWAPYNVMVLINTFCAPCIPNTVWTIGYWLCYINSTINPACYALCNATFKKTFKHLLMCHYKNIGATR
Description: Functional mobilization of intracellular calcium (FLIPR) in CHO cells expressing M2. The following applies: for pEC50: CHO cells expressing M2, FLIPR calcium; for Emax: CHO, 100% = maximum response obtained with the Carbachol control, read-out: M2 Efficacy. The gist of the method: as §1

SMILES strings stand for the structures. pEC50: −log10 of the molar value. Where only a bound is given, the exact number is not on record here.

For orientation: pEC50 means the negative decadic logarithm of the EC50, by convention in mol/L. `CC(C)(C)CCN1CCC2(CC[C@H](NC(=O)CC3CCCC3=O)c3ccc(F)cc32)CC1` (stereo partly shown) [compound 28]: the pEC50 in assay [1] is over 5.70; in assay [2] it was over 5.70; in assay [3], under 5.30; in assay [4] it was 5.30 to 5.70. For the same molecule, the Emax in assay [1] is 25 to 100%; in assay [2] it was 25 to 100%; in assay [3] it was under 25%; in assay [4], under 25%.
`CC(C)(C)CCN1CCC2(CC[C@@H](NC(=O)CCN3CCCC3=O)c3ccc(F)cc32)CC1` [compound 29]: the pEC50 in assay [1] was over 5.70; in assay [2], over 5.70; in assay [3], under 5.30; in assay [4], over 5.70. In addition, the Emax is 25 to 100% in assay [1], 25 to 100% in assay [2], under 25% in assay [3] and 25 to 100% in assay [4].
For the molecule `CCN(C(=O)C1CCOC(C)(C)C1)[C@H]1CCC2(CCN(CCC(C)(C)C)CC2)c2ccccc21` (stereo partly shown) [compound 30], the pEC50 in assay [1] is 5.30 to 5.70; in assay [2] it was under 5.30; in assay [3], under 5.30; in assay [4] it was under 5.30. Moreover, the Emax was 25 to 100% in assay [1], under 25% in assay [2], under 25% in assay [3] and under 25% in assay [4].
Take `CC(C)(C)CCN1CCC2(CC[C@H](NC(=O)C3CCCO3)c3ccccc32)CC1` (stereo partly shown) [compound 31]: the pEC50 is over 5.70 in assay [1], over 5.70 in assay [2], under 5.30 in assay [3] and over 5.70 in assay [4]. The Emax in assay [1] was 25 to 100%; in assay [2], 25 to 100%; in assay [3], under 25%; in assay [4], under 25%.
Take `CC(=O)N[C@@H]1c2ccccc2C2(CCN(CCC(C)(C)C)CC2)CC1(F)F` [compound 32]: the pEC50 in assay [1] is over 5.70; in assay [2], over 5.70; in assay [3], under 5.30; in assay [4], over 5.70. For the same molecule, the Emax in assay [1] was 25 to 100%; in assay [2], 25 to 100%; in assay [3] it was under 25%; in assay [4] it was 25 to 100%.
In the case of `CC(=O)NCC(=O)N[C@H]1CCC2(CCN(CCC(C)(C)C)CC2)c2cc(F)ccc21` [compound 33], the pEC50 was over 5.70 in assay [1], over 5.70 in assay [2], under 5.30 in assay [3] and over 5.70 in assay [4]. The Emax in assay [1] is 25 to 100%; in assay [2], 25 to 100%; in assay [3], under 25%; in assay [4], 25 to 100%.
For the molecule `CCN(C(=O)C(C)NC(C)=O)[C@H]1CCC2(CCN(CCC(C)(C)C)CC2)c2ccccc21` (stereo partly shown) [compound 34], the pEC50 was over 5.70 in assay [1], over 5.70 in assay [2], under 5.30 in assay [3] and 5.30 to 5.70 in assay [4]. Besides, the Emax in assay [1] is 25 to 100%; in assay [2], 25 to 100%; in assay [3], under 25%; in assay [4], under 25%.
In the case of `CC(C)NC(=O)C1CCC2(CCN(CCC(C)(C)C)CC2)c2ccccc21` (stereo not shown) [compound 35], the pEC50 in assay [1] was over 5.70; in assay [2], under 5.30; in assay [3], under 5.30; in assay [4] it was under 5.30. For the same molecule, the Emax was 25 to 100% in assay [1], under 25% in assay [2], under 25% in assay [3] and under 25% in assay [4].
Regarding `CC(C)(C)CCN1CCC2(CC[C@H](NC(=O)C3CCN(C(=O)c4ccccc4)CC3)c3ccccc32)CC1` [compound 36], the pEC50 in assay [1] was over 5.70; in assay [2] it was over 5.70; in assay [3], under 5.30; in assay [4], under 5.30. The Emax is 25 to 100% in assay [1], 25 to 100% in assay [2], under 25% in assay [3] and under 25% in assay [4].
Turning to `CC(C)(C)CCN1CCC2(CCCc3ccccc32)CC1` [compound 37], the pEC50 in assay [1] was over 5.70; in assay [2] it was 5.30 to 5.70; in assay [3], under 5.30; in assay [4], 5.30 to 5.70. The Emax in assay [1] was 25 to 100%; in assay [2], 25 to 100%; in assay [3], under 25%; in assay [4], 25 to 100%.
For `C[C@H](C(=O)N[C@H]1CCC2(CCN(CCC(C)(C)C)CC2)c2ccccc21)N1CCCCC1=O` [compound 38], the pEC50 was over 5.70 in assay [1], over 5.70 in assay [2], under 5.30 in assay [3] and under 5.30 in assay [4]. The Emax in assay [1] was 25 to 100%; in assay [2] it was 25 to 100%; in assay [3] it was under 25%; in assay [4] it was under 25%.
`CCN(C(=O)C1CCCO1)[C@H]1CCC2(CCN(CCC(C)(C)C)CC2)c2ccccc21` (stereo partly shown) [compound 39]: the pEC50 in assay [1] was over 5.70; in assay [2], under 5.30; in assay [3] it was under 5.30; in assay [4], under 5.30. For the same molecule, the Emax in assay [1] is 25 to 100%; in assay [2], 25 to 100%; in assay [3], under 25%; in assay [4], under 25%.
As to `Cc1cc(C(=O)N[C@@H]2CCC3(CCN(CCC(C)(C)C)CC3)c3cc(F)ccc32)nn1C` [compound 40], the pEC50 in assay [1] is over 5.70; in assay [2] it was over 5.70; in assay [3] it was under 5.30; in assay [4] it was over 5.70. Also, the Emax in assay [1] is 25 to 100%; in assay [2] it was 25 to 100%; in assay [3], under 25%; in assay [4], 25 to 100%.
In the case of `CC(=O)N1CCCCC1C(=O)N[C@H]1CCC2(CCN(CCC(C)(C)C)CC2)c2ccccc21` (stereo partly shown) [compound 41], the pEC50 is over 5.70 in assay [1], over 5.70 in assay [2], under 5.30 in assay [3] and under 5.30 in assay [4]. In addition, the Emax is 25 to 100% in assay [1], 25 to 100% in assay [2], under 25% in assay [3] and under 25% in assay [4].
As for `CCN(C(=O)CC(C)(C)O)[C@H]1CCC2(CCN(CCC(C)(C)C)CC2)c2ccccc21` [compound 42], the negative logarithm of the EC50 (pEC50) in assay [1] was over 5.70; in assay [2], 5.30 to 5.70; in assay [3], under 5.30; in assay [4], under 5.30. The Emax is 25 to 100% in assay [1], 25 to 100% in assay [2], under 25% in assay [3] and under 25% in assay [4].
In the case of `CC#CCN(C(C)=O)[C@H]1CCC2(CCN(CCC(C)(C)C)CC2)c2ccccc21` [compound 43], the pEC50 is over 5.70 in assay [1], over 5.70 in assay [2], under 5.30 in assay [3] and over 5.70 in assay [4]. In addition, the Emax is 25 to 100% in assay [1], 25 to 100% in assay [2], under 25% in assay [3] and 25 to 100% in assay [4].
As for `CCN(C(=O)C1CCC(=O)C1)[C@H]1CCC2(CCN(CCC(C)(C)C)CC2)c2ccccc21` (stereo partly shown) [compound 44], the pEC50 in assay [1] was over 5.70; in assay [2], 5.30 to 5.70; in assay [3] it was under 5.30; in assay [4], under 5.30. Moreover, the Emax in assay [1] was 25 to 100%; in assay [2], 25 to 100%; in assay [3], under 25%; in assay [4] it was under 25%.
